Patent US20030133974A1 (priority 1997, published 2003)
Structures can show the parent of a compound that is named as a salt.

Assays:
[1] = Equilibrium solubility of sertraline base and hydrochloride in selected vehicles (Table 4-4); format: physicochemical; settings: vehicle Miglyol 810
Source text: Water-immiscible vehicles do have this capacity.

[2] = Dilution of PEG-400 or polysorbate-80 solution of sertraline base into 0.9% NaCl (Example 3); format: physicochemical
Description: One ml of this test solution was added to 15 ml normal saline (0.9% NaCl, pH 4.2), and was stirred vigorously.

[3] = Precipitation studies with sertraline base in 0.1N HCl and phosphate buffered saline pH 5.8 (Example 4)
Description: Solution (a) is a simulated gastric fluid, and solution (b) is a simulated intestinal fluid.
PEG400 is miscible with aqueous media, while Capmul®-MCM and safflower oil are not. One milliliter of the test solution was added to 10 mL of (a) 0.1N HCl solution and (b) phosphate buffered saline (PBS) pH 5.8 and was stirred vigorously.
Mobile phase: per liter of mobile phase: 270 mL of tetrahydrofuran, 230 mL of methanol and 400 mL of buffer. The buffer consisted of 25 mM triethylamine phosphate. It was prepared by adding 1.7 mL of phosphoric acid and 3.5 mL of tirethylamine to 1 liter of water.

[4] = in water; cited from earlier work
[5] = Chloride-induced gelling of sertraline salt solutions; format: physicochemical
physchem = settings: simulated gastric fluid
[6] = Human crossover pharmacokinetics of 200 mg sertraline delivered to various portions of the gastrointestinal tract (Example 1); format: in vivo; settings: Group A
Description: Dosing was via (1) oral tablets, or (2) infusion of a solution through a nasoenteric tube into the stomach, duodenum, or ileocecal region of the small intestine, or (3) infusion into the transverse colon via anal intubation.
The infusions were administered as a 2 mg/ml solution at a rate of 20 ml/min for 5 min.
Analysis was carried out by capillary gas chromatography with electron capture detection. […] Tmax is the time at which Cmax is achieved.

clinical = settings: human, in vivo, po
[7] = human, in vivo
[8] = dosed as Zoloft tablets; cited from earlier work

Molecule: CN[C@H]1CC[C@@H](c2ccc(Cl)c(Cl)c2)c2ccccc21 [Free base, sertraline free base]
- Equilibrium solubility in Miglyol 810 [1]: >50 mgA/ml
- Observed Concentration after Dilution in Saline after 2 hr ([2]; vehicle Polysorbate-80, 50 mgA/ml in vehicle, 1 ml into 15 ml 0.9% NaCl): 3.1 mgA/ml
- Concentration of sertraline in aqueous layer ([3]; Capmul MCM 50 mgA/mL, 1 mL into 10 mL phosphate buffered saline pH 5.8, 120 minutes): 0.16 mgA/mL
- Concentration of sertraline in aqueous layer ([3]; Safflower oil 50 mgA/mL, 1 mL into 10 mL 0.1 N HCl, 120 minutes): 0.48 mgA/mL
- Concentration of sertraline in aqueous layer ([3]; Safflower oil 50 mgA/mL, 1 mL into 10 mL phosphate buffered saline pH 5.8, 120 minutes): 0.19 mgA/mL
- Precipitation of sertraline ([3]; solution in safflower oil added to phosphate buffered saline): little or no precipitation

Molecule: vitamin E
- Aqueous solubility [4]: practically insoluble in water

Molecule: sertraline acetate
- State of saturated solution at physiological chloride concentrations [5]: thick pasty solid which does not flow

Molecule: CN[C@H]1CC[C@@H](c2ccc(Cl)c(Cl)c2)c2ccccc21 [Hydrochloride, sertraline hydrochloride]
- solubility (physchem): ~3000 µg/mL
- Equilibrium solubility in Miglyol 810 ([1]; hydrochloride): greater than 0.1 mgA/ml

Molecule: CN[C@H]1CC[C@@H](c2ccc(Cl)c(Cl)c2)c2ccccc21 [sertraline]
- AUCO-LAST ([6]; Ileocecal Infusion of solution): 727.1 ng·h/mL
- AUCO-LAST ([6]; Oral Tablet (two 100 mg Zoloft tablets)): 1174.5 ng·h/mL
- AUCO-LAST ([6]; Stomach Infusion of solution): 923.1 ng·h/mL
- Tmax (clinical): < 1.5 h
- Precipitation upon addition to a NaCl solution ([2]; PEG400 solution of sertraline): a portion of the sertraline precipitates
- Precipitation upon addition to a NaCl solution ([2]; Polysorbate-80 solution of sertraline): no precipitation occurs
- Precipitation of sertraline ([3]; PEG 400 solution added into either 0.1 N HCl or phosphate buffered saline): precipitation of a large proportion of sertraline
- Portion of sertraline remaining in solution ([3]; vehicle Capmul-MCM, 0.1 N HCl or phosphate buffered saline): > 95 % of added amount
- Intrinsic absorption rate constant (ARC) [7]: greater than 0.025 min^−1
- Absolute oral bioavailability [8]: 54%

Molecule: CN[C@H]1CC[C@@H](c2ccc(Cl)c(Cl)c2)c2ccccc21 [Lactate, sertraline lactate]
- State of saturated solution at physiological chloride concentrations [5]: thick pasty solid which does not flow
